| SMILES | melting point |
| --- | --- |
| CCOC(=O)C(C)(C)Oc1ccc(OCCc2nc(-c3ccc(Br)cc3)oc2C)cc1 | 78 to 79 °C |
| Nc1ccc(-c2ccncc2)nn1 | 199 to 201 °C |
| Cc1cc(I)ccc1NC(=S)N(C)N | 160 to 161 °C |
| Clc1ccc(Oc2cncc3sc(-c4ccco4)cc23)cc1 | 75 to 77 °C |
| Nc1nc(-c2ccc(Cl)cc2)c(CCC(=O)O)s1 | 116 to 118 °C |
| CC(C)C(=O)Nc1cn(-c2cncc(F)c2)nc1C=O | 140 to 142 °C |
| Cn1nc(N)nc1NCCCOc1cccc2c(N3CCOCC3)nccc12 | 178 to 180 °C |
| O=C(C(Cl)=CO)c1ccc(Cl)cc1Cl | 162 °C |
| Cc1cc(=O)c(-c2ccc(C#N)cc2)c(C)[nH]1 | 192 to 195 °C |
| COc1ccc(C(O)CNCc2cccc(OC)c2OC)cc1OC (stereo not drawn) | 96 to 97 °C |
| COC(=O)C1=CC(=O)CCC1c1ccccc1OC (racemic) | 76 °C |
| Cc1oc(-c2ccccc2)nc1COc1ccc2oc(CCCc3nnn[nH]3)cc2c1 | 136 to 137 °C |
| COc1ccc(CC(=O)O)cc1C1CCCCC1 | 112 to 114 °C |
| COc1cc(N)c(Cl)cc1C(=O)NCC1CCN(CCCCCCNC(=O)c2ccccc2)CC1 | 159 to 162 °C |
| C[C@@H](n1ncn(-c2ccc(-n3ccnn3)cc2)c1=O)[C@](O)(Cn1cncn1)c1ccc(F)cc1F | 219 to 220 °C |
| O=C(O)CCc1oc(NC2CCCCC2)nc1-c1ccc(Cl)cc1 | 237 to 238 °C |
| O=C(Nc1ccc2ccc(Oc3ccc(Cl)cc3)nc2n1)c1ccccc1 | 148 °C |
| Cc1cccc(COc2cccc(COc3ccc4ccccc4n3)c2)c1C(=O)O | 68 to 72 °C |
| CC(=O)c1ccc2cc(N3CCNCC3)ccc2c1 | 170 to 172 °C |
| Cc1ccc(C(=O)NCc2ccccc2)cc1-c1nc(S(C)(=O)=O)nc2c1CNC(=O)N2c1c(F)cccc1F | 239 to 241 °C |
| CCOc1ccc(NCc2cc(OC)c(OC)c(OC)c2)cc1 | 76 to 78 °C |
| COc1cc(OC)c(C2=NC(C)(C)CO2)cc1OC | 84 to 86 °C |
| COc1ccc2nc(-c3cccc(C)c3)c(-c3ccnc(NC4CCCCC4)c3)n2n1 | 188 to 189 °C |
| O=C(NC(Cc1ccccc1)C(=O)O)OCc1ccc(C#Cc2ccccc2)cc1 (stereo not drawn) | 172 to 173 °C |
| CC1CCCCN1C(=O)c1nc(-c2ccccc2)nc2ccccc12 (stereo not drawn) | 150 °C |

| SMILES | melting point |
| --- | --- |
| Cc1ccccc1COC(=O)c1ccc(C(=O)N2Cc3ccccc3Cc3ccccc32)cc1 | 140 to 142 °C |
| OCC1OC(n2c(Br)nc3cc(Cl)c(Cl)cc32)C(O)C1O (stereo not drawn) | 169 °C |
| COc1ccc(C(=O)Nc2ccccc2)cc1NC(=S)Nc1ccc(C)cc1 | 156 to 158 °C |
| CC(=O)NC[C@H]1CN(c2ccc(-c3nnc(CCCl)s3)c(F)c2)C(=O)O1 | 178 to 180 °C |
| CCCCC(CC)COc1cc(CO)c(-n2c3ccccc3c3ccccc32)cc1CO (stereo not drawn) | 128 °C |
| CC(=O)NCc1cccc(Nc2nccc(-c3sc(NCc4ccccc4)nc3C)n2)c1 | 181 to 183 °C |
| O=C(O)COc1ccc2c(-c3ccc(Cl)c(Cl)c3)noc2c1Cl | 222 to 224 °C |
| COc1ccc(N2Cc3cnc(Nc4ccccc4)nc3N(C[C@@H](C)O)C2=O)cc1 | 189 to 193 °C |
| COc1cc(OC)c(S(=O)(=O)Cl)cc1-c1nc2nccnc2[nH]1 | 294 to 296 °C |
| Cc1ccnc2ccc(C(=O)c3ccc(Cl)cc3)cc12 | 114 °C |
| O=C(O)c1cn(C2CC2)c2c(F)c(N3CCC3)c(F)cc2c1=O | 289 to 293 °C |
| CCOC(=O)C1=C(C)NC(c2cscn2)=NC1c1cccc(OC)c1 (stereo not drawn) | 140 to 142 °C |
| O=C(Cl)c1cc2n(c1)CCc1ccccc1C2=O | 147 °C |
| O=c1[nH]c(=O)n(C2CC(F)C(CCl)O2)cc1C=CBr (stereo not drawn) | 203 °C |
| CNC(=O)c1ccccc1Nc1nc(Nc2ccc3c(c2)CCC(=O)CC3)ncc1Cl | 262 to 269 °C |
| CCOC(=O)C(=Cc1ccccn1)C(=O)c1ccc(F)cc1 | 128 to 129 °C |
| COc1cc2c(c3c1OC(C)(C)C3)C(c1cccc(N)c1)=NC(C)(C)C2 | 131 to 134 °C |
| CC(=O)OC1CSC(Oc2ccc(-c3cncc(C)c3)nc2)C(OC(C)=O)C1OC(C)=O (stereo not drawn) | 189 to 190 °C |
| Cc1oc(-c2ccccc2)nc1CCC(O)c1ccc(CCC2OC(=O)NC2=O)cc1 (stereo not drawn) | 145 to 146 °C |
| CC1(C)Cc2nc(C3CC3)c(Cc3ccc(C(F)(F)F)cc3)c(-c3ccc(F)c(F)c3)c2C(O)C1 (stereo not drawn) | 126 to 127 °C |
| Cc1nc2scc(-c3ccc(F)cc3)n2c(=O)c1CCN1CCC(c2noc3cc(F)ccc23)CC1 | 119 to 122 °C |
| CCCCc1nc2c(N)nc3cccnc3c2n1CCCCNC(=O)CSc1ccncc1 | 128 to 129 °C |
| Cc1ccc(N2CCN(CCCc3ccc(C4CCC(=O)N4)cc3)CC2)cc1 (stereo not drawn) | 143 to 145 °C |
| Cc1cccc(C(=O)Nc2c[nH]nc2C(=O)NCC(C)(C)CO)n1 | 217 to 218 °C |
| CCC(COc1cccc(COc2cccc3ccc(=O)[nH]c23)c1)OC(C)=O (stereo not drawn) | 81 to 84 °C |

| SMILES | melting point |
| --- | --- |
| CC(C)(C)SCC1(C(=O)O)Cc2ccccc2C1 | 158 to 163 °C |
| O=c1cc(C(F)(F)F)c2ccc(NCc3ccccc3)cc2o1 | 136 to 137 °C |
| Cc1cc(-c2cnn3c(C(F)(F)F)cc(-c4ccc(C(F)(F)F)c(C)c4)nc23)ccn1 | 237 °C |
| COC(=O)CCc1ccc(OCCc2nc(-c3ccccc3)oc2C)cc1 | 50.2 to 51.7 °C |
| COc1cccc([C@H]2O[C@H](CC(=O)O)C(=O)N(CC(C)(CO)CO)c3ccc(Cl)cc32)c1OC | 208 to 210 °C |
| O=C(O)c1cc(S(=O)(=O)N2CCCC(OCc3ccccc3)C2)ccc1Cl (stereo not drawn) | 173 to 174 °C |
| COc1ccc(-c2cc3cc(F)c(F)cc3[nH]2)cc1NC(=S)Nc1ccc(C(=O)O)cc1 | 201 to 203 °C |
| CC(C)(NSc1nc2ccccc2s1)c1ccccc1 | 88 to 90 °C |
| COc1nc(C(Cl)(Cl)Cl)c(Cl)c(OC)c1Cl | 67 to 69 °C |
| COc1cc(C2c3cc4c(cc3C(NC3=CC(=O)N(Cc5ccc(C(F)(F)F)cc5)C3=O)C3COC(=O)C23)OCO4)cc(OC)c1O (stereo not drawn) | 184 to 186 °C |
| CCOC(=O)C1CCCN(C(=O)CCn2cnc3c(=O)[nH]cnc32)C1 (stereo not drawn) | 171 to 175 °C |
| COCC12CCC(O)CC1CCC1C3CCC(=O)C3(C)CCC12 (stereo not drawn) | 172 to 174 °C |
| Cc1c(C)c(N2CCN(c3ccc(C(F)(F)F)cc3)CC2)c(C)c2c1OC(C)(C)C2O (stereo not drawn) | 212 to 214 °C |
| CC(C)n1nc(-c2cc(N)cnc2-c2ccccc2)ccc1=O | 147 to 148 °C |
| NC(=O)c1cn(Cc2ccccc2Cl)nn1 | 155 to 158 °C |
| COc1nc(NCCCN2CCOCC2)nc(OC)c1NC(=O)c1csc(Oc2cccc(C(C)(C)C)c2)n1 | 68 °C |
| COc1cc2cc(-c3c(F)cccc3F)sc2c(Cl)c1Cl | 173 to 174 °C |
| CCCCCCCCCCCCCCN(C)c1ccc([N+](=O)[O-])cc1C(=O)O | 100 to 101 °C |
| CCc1ccc(Nc2nc3cc(NC(=O)c4ccccc4Nc4cccc(C(F)(F)F)c4)ccc3o2)cc1 | 174 to 176 °C |
| O=C(O)C1=CN(C2CC2)C(c2ccc3c(c2)OCO3)CC1=O (stereo not drawn) | 122 to 124 °C |
| CCOC(=O)OCC(I)=C(I)I | 49 to 50 °C |
| COc1ccccc1CCn1nnnc1-c1ccc2c(c1)C=CC(C)(C)O2 | 101 to 105 °C |
| COc1cc2c(cc1Nc1ncc(Cl)c(Nc3ccccc3S(=O)(=O)N(C)C)n1)CCN(CCS(C)(=O)=O)CC2 | 84 to 101 °C |
| CCCc1ccc(C(=O)Nc2ccc3c(c2)CCC3=O)cc1 | 181 to 184 °C |
| NC(=O)N1C(=O)C(=C(OC(=O)c2ccco2)c2cccs2)c2cc(F)c(Cl)cc21 | 215 to 216 °C |

| SMILES | melting point |
| --- | --- |
| Clc1ccc2ncc(Cl)nc2c1 | 120 to 121 °C |
| CCOC(=O)Cc1ccc(CC(=O)c2c(O)c3cccnc3n(-c3ccccc3)c2=O)cc1 | 156 to 158 °C |
| Fc1ccccc1-c1ccc2cccnc2n1 | 111 to 114 °C |
| CCCCc1nc2c(N)nc3ccccc3c2n1CCCCNS(=O)(=O)c1cccs1 | 138 to 142 °C |
| Fc1ccc2sc(Cl)nc2c1 | 69 °C |
| CSc1nn2c(N3CCN(C)CC3)cc(C)nc2c1S(=O)(=O)c1cccnc1 | 188 to 189 °C |
| Cc1ccc(C(=S)c2cc(F)cc3c2NC(=O)C3)cc1 | 168 to 174 °C |
| Cc1ccc(OCC2CN(C(C)C)C(=O)O2)cn1 (stereo not drawn) | 86 to 88 °C |
| CNC(=O)C[C@@H](c1ccccc1)c1c[nH]c2cccc(OC)c12 | 178 to 181 °C |
| Cc1cc(C)c2ncc(NC(=O)C=Cc3ccc(O)cc3)c(-c3ccccc3Cl)c2c1 | 228 to 230 °C |
| COC(=O)c1cc(C(=O)NCCCO)c2cc(Cc3ccc(F)cc3)cnc2c1O | 167 to 168 °C |
| O=C1c2cc3nnn(Cn4cc(Br)cn4)c(=O)c3cc2OC2CCCN12 (stereo not drawn) | 180 to 181 °C |
| COc1cc(OCc2ccncc2)ccc1/C=C/c1cc(/C=C/c2c[nH]c3ccccc23)n[nH]1 | 128 to 139 °C |
| O=CCCCCC(c1cc(F)ccc1F)S(=O)(=O)c1ccc(Cl)cc1 (stereo not drawn) | 135 to 136 °C |
| CC(C)CN(CC(O)C(Cc1ccccc1)NC(=O)C(CC(N)=O)NC(=O)c1ccc2ccccc2n1)C(=O)NC(C)(C)C (stereo not drawn) | 107 to 110 °C |
| CN(C)C(=O)c1ncccc1OC1SCC(O)C(O)C1O (stereo not drawn) | 80 to 85 °C |
| Cc1c(NC(=O)CC(C)(C)C)cc2c(c1C)OC(C)(C)C2c1ccccc1C(C)C (stereo not drawn) | 188 to 189 °C |
| NS(=O)(=O)c1ccc(-c2cnn(-c3ccc(F)c(Cl)c3)c(=O)c2-c2ccc(F)cc2)cc1 | 208 to 210 °C |
| CC(C)Nc1cc2c(cc1C(=O)c1ccccc1)OCO2 | 77 to 78 °C |
| O=C(O)Cc1cccc(OCCCN(Cc2cccc(F)c2F)CC(c2ccccc2)c2ccccc2)c1 | 148 °C |
| O=C1C(=O)c2ccccc2C2=C1SCC1(CCN(c3cc(Cl)ncn3)CC1)O2 | 172 to 174 °C |
| O=C1Cc2cc(O)ccc2N1c1c(Cl)cccc1Cl | 204 to 205 °C |
| O=c1oc2cc(O)ccc2c2c1CCCCC2 | 189 to 190 °C |
